Experimental data published in US20210330760A1, “METHODS AND MATERIALS FOR TREATING OSTEOARTHRITIS” (University of Pittsburgh - Of the Commonwealth System of …, priority 2020, published 2021).
Entries after “also recorded” stand apart in the source; their conditions may differ.

Legend:
Type in all cases: in vivo
Settings in all cases: aged male mice (21-24 months), daily subcutaneous BAPN for 4 weeks, vs saline
α-Klotho = test: BAPN daily injection in aged mice, α-Klotho immunofluorescence in chondrocytes
Method: (§1) Aged male C57/BL6 mice (21-24 months; body mass) received daily subcutaneous injections of either saline, as a control, or BAPN (290 μg/μ1 in saline) for 4 weeks every day. Volume of the injection (40-80 μl) was determined based on mice body mass (m) with following protocol: 40 μl (18.45 g≤m≤23.73 g), 50 μl (23.73 g≤m≤29.00 g), 60 ul (29.00 g≤m≤34.27 g), 70 μl (34.27 g≤m≤39.55 g), 80 μl (39.55 g≤m≤44.82 g). Mice were weighed every other day beginning on day 0 and ending on day 28 to ensure proper dosage of BAPN.
Immunofluorescence analysis for tissue section and/or cell-seeded pAAm gel was performed to determine the signal intensity of type II collagen, α-Klotho, Lamin A/C, and Lamin B2 in accordance with established protocol (Sahu, et al., 2018, supra). Briefly, after a triple wash by PBS, cells were permeabilized with 0.1% triton-X (Fluka 93420) for 15 minutes, followed by a one-hour blocking step using 0.1% triton-X with 3% Bovine Serum Albumin (BSA, Sigma A7906) in PBS. The cells were then incubated with primary antibodies for overnight at 4° C. A similar process was followed for the decalcified tissue paraffin. […]
Slides were imaged using a Zeiss Observer Z1 semi-confocal microscope. […] All images for quantitative analysis in a given experiment were taken under the same imaging conditions. Fluorescence intensity was quantified using Image J

[1] = test system: medial tibial cartilage of aged male C57/BL6 mice; test: BAPN daily injection in aged mice, cartilage histology (OARSI score)
Method: as §1
Mice knee joints and human cartilage samples were fixed in 4% paraformaldehyde overnight at 4° C., and decalcified in 20% ethylene diamine tetra acetic acid solution for 10 days. Decalcified paraffin sections (5 μm thickness) were prepared from central region of the mice knee joints in the frontal plane in accordance with the OARSI recommendation (Glasson, et al., Osteoarthritis Cartilage 18 Suppl 3, S17-23 (2010)). Decalcified paraffin sections from human cartilage specimen were also prepared. […] The OARSI scoring system, consisting of six grades and four stages on a scale from 0 (normal) to 24 (severe cartilage lesion), was used for semi-quantitative evaluation of cartilage lesion severity (Pritzker, et al., Osteoarthritis Cartilage 14, 13-29 (2006)). The most severe score was evaluated as the maximum OARSI score. […]

[2] = test system: chondrocyte nuclear morphology; test: BAPN daily injection in aged mice, chondrocyte nuclear morphology (CellProfiler, PCA)
Method: as §1
DAPI and F-actin images were obtained at 63× and 20× magnification using a Zeiss Observer Z1 semi-confocal microscope, respectively. Afterwards, image processing and morphome feature extraction were performed using CellProfiler software (v4.0, The Broad Institute) (Carpenter et al., Genome Biol 7, R100 (2006)). Fifty-three shape features of cell and nuclei were determined using the “identify primary objects” followed by the “measure object size shape” and “export to spread sheet” module. Principal Component Analysis (PCA) was performed for the data reduction identifying the principal components (PCs) that represent the differences in the cellular and nuclear morphology. To determine variables of cellular and nuclear shape contributing to PCs, loading matrix, a correlation between the original variable and PCs, were extracted.

Compound: N#CCCN [BAPN, β-aminopropionitrile]
- α-Klotho expression in chondrocytes (α-Klotho): significantly increased α-Klotho levels; also recorded: increased α-Klotho expression; also recorded: improves α-Klotho expression
- cartilage integrity (OARSI score) [1]: improves cartilage integrity
- nuclear eccentricity of chondrocytes [2]: decreased nuclear eccentricity; also recorded: decreases nuclear eccentricity towards young level
